Reference: patent publication US20240091227A1, “Use Of 2-Phenyl-6-(1H-Imidazol-1-YL) Quinazoline For Treating Neurodegenerative Diseases, Preferably Alzheimer's Disease” (ROTTAPHARM BIOTECH S.R.L., priority 2019, published 2024)

Test system: PKCε
Assay: PKCε translocation to the plasma membrane in cultured dorsal root ganglia neurons
Type: cell-based, rat
Conditions: idazoxan pre-applied 10 minutes at 10 and 100 μM, toward 1 μM CR4056
Method: FIG. 1 reports the time-course (A) and washout (B) of CR4056 effect on PKCF translocation induced by bradykinin (BK 1 μM). In Panel A, open symbols represent the percentage of neurons positive for PKCF translocation following BK stimulation in absence of the drug. Filled symbols represent neurons pre-incubated with CR4056 ([…]) for different times before the stimulation for 30 seconds with BK+CR4056. The first filled symbol indicates the effect of CR4056 co-incubated for 30 seconds with BK, the second filled symbol indicates 10 seconds of pre-incubation of CR4056, and the last indicates 24 hours of pre-incubation of CR4056. […] In Panel B, BK-induced PKCF translocation was evaluated before (open symbol) and after pre-incubation of CR4056 ([…]) at different time intervals (from 10 minutes to 8 hours) (filled symbols). The first datapoint was obtained at the end of the 10 minute pre-incubation, when CR4056 was still present. The subsequent datapoints were obtained after extensive rinsing to ensure complete removal of the drug from extracellular solution (n=3).
Rat dorsal root ganglia (DRGs) were obtained from freshly isolated spines after carefully removing nerve trunks and connective tissue. Larger ganglia, chopped into 2-4 smaller pieces were then incubated for 1 hour at 37° C. in 0.125% collagenase (Worthington, Freehold, NJ) dissolved in Dulbecco's modified Eagle's medium (DMEM) containing 10% fetal bovine serum (FBS) plus 1% penicillin/streptomycin and 1% L-glutamine (Euroclone, Milan, Italy). After enzymatic digestion, ganglia were mechanically dissociated and neurons plated at a density such that neurons would cover about 30% of coverslip surface in a single layer, in petri dishes containing wells with a glass bottom coverslip (pre-coated with 10 μg/mL poly-L-lysine and 20 µg/ml laminin, Sigma-Aldrich, Milan, Italy). Cells were incubated for 2-3 days in DMEM as described above, plus 1.5 μg/ml cytosine 1-d-arabinofuranoside (ARA-C, Sigma-Aldrich) to slow down proliferation of non neuronal cells, and 100 ng/ml nerve growth factor (NGF, Sigma-Aldrich) to increase cell health and the and the expression of receptors which are linked to PKCF translocation upon stimulation. Activation of membrane receptors coupled to phospholipase C pathway leads to PKCF translocation from cytoplasm to the plasma membrane. In order to study PKCε behaviour a well established technique was employed (Vellani V, Neuroscience, 2006). […] CR4056 was pre-applied in the culture medium for 10 min or co-applied with the stimulus. After fixation, cells were permeabilized with 0.2% Triton X-100 (Sigma-Aldrich, Milan, Italy) and exposed overnight to a rabbit polyclonal antibody highly specific for PKCF. After extensive rinsing, PKCF was visualized with a secondary antibody (1:200 dilution Alexa Fluor 488 goat anti-rabbit, Thermo Fisher Scientific, Monza, Italy) applied for 2-4 hours at room temperature in the dark Cells showing PKCF translocation were detected with a confocal microscope (Leica SP2, Leica, Switzerland) by measuring fluorescence intensity along a line drawn through the cytoplasm and the membrane, thus avoiding the nucleus. Neurons in which fluorescence intensity at the plasma membrane throughout the cell was 1.5-fold or higher than the mean cytoplasmic intensity were considered positive.

For c1ccc2c(c1)OCC(C1=NCCN1)O2 (stereo not shown) [Idazoxan, idazoxan, reference compound], the “Effect of idazoxan on the block of PKCF translocation by CR4056” value was “completely ineffective”.
